In brackets after ≈: the same amount, converted by molar mass.
Experiments:
[1] = Genotoxicity in human TK6 cells assessed as micronuclei formation by micronucleus test; assay type: toxicity, cell-based
[2] = target: Phosphatidylinositol 4,5-bisphosphate 3-kinase catalytic subunit alpha isoform (Homo sapiens, UniProt P42336); test: Inhibition of PI3Kalpha (unknown origin)
[3] = target: Phosphatidylinositol 4,5-bisphosphate 3-kinase catalytic subunit gamma isoform (Homo sapiens, UniProt P48736); test: Inhibition of PI3Kgamma (unknown origin)
Cytochrome P450 3A4 = Cytochrome P450 3A4 (Homo sapiens, UniProt P08684); test: Inhibition of CYP3A4 (unknown origin); assay type: ADME
Cytochrome P450 2D6 = Cytochrome P450 2D6 (Homo sapiens, UniProt P10635); test: Inhibition of CYP2D6 (unknown origin); assay type: ADME
[4] = Metabolic stability in rat liver microsomes assessed as intrinsic clearance at 1 uM incubated for 30 mins in presence of NADPH by LC-MS/MS analysis; assay type: ADME, Microsome; conditions: read-out: CLH
[5] = Metabolic stability in human liver microsomes assessed as intrinsic clearance at 1 uM incubated for 30 mins in presence of NADPH by LC-MS/MS analysis; assay type: ADME, Microsome; conditions: read-out: CLH
[6] = Apparent permeability across apical to basolateral side in MDCK-MDR1 cells; assay type: ADME, cell-based, Canis lupus familiaris; conditions: dog
[7] = Apparent permeability across basolateral to apical side in MDCK-MDR1 cells; assay type: ADME, cell-based, Canis lupus familiaris; conditions: dog
[8] = target: 3',5'-cyclic-AMP phosphodiesterase 4D (Homo sapiens, UniProt Q08499); test: Inhibition of PDE4D (unknown origin)
[9] = Solubility of compound at pH 6.8; assay type: physicochemical; conditions: buffer
[10] = AUC(0 to t) in C57BL/6 mouse at 1 mg/kg, iv measured upto 24 hrs by HPLC-MS analysis; assay type: ADME, organism-based; design: time < 24 hrs, dose 1 mg/kg, route iv; conditions: in vivo
[11] = AUC(0 to t) in C57BL/6 mouse at 3 mg/kg, ip measured upto 24 hrs by HPLC-MS analysis; assay type: ADME, organism-based; design: time < 24 hrs, dose 3 mg/kg, route ip; conditions: in vivo
[12] = AUC(0 to t) in Sprague-Dawley rat at 1 mg/kg, iv measured upto 24 hrs by HPLC-MS analysis; assay type: ADME, organism-based; design: dose 1 mg/kg, time < 24 hrs, route iv; conditions: in vivo
[13] = Tmax in Sprague-Dawley rat at 3 mg/kg, po and 1 mg/kg, iv measured upto 24 hrs by HPLC-MS analysis; assay type: ADME, organism-based; conditions: in vivo
[14] = Bioavailability in C57BL/6 mouse at 1 mg/kg, iv and 3 mg/kg, ip measured upto 24 hrs by HPLC-MS analysis; assay type: ADME, organism-based; conditions: in vivo
[15] = Volume of distribution at steady state in C57BL/6 mouse at 1 mg/kg, iv and 3 mg/kg, ip measured upto 24 hrs by HPLC-MS analysis; assay type: ADME, organism-based; conditions: in vivo, read-out: Vdss
[16] = Volume of distribution at steady state in Sprague-Dawley rat at 3 mg/kg, po and 1 mg/kg, iv measured upto 24 hrs by HPLC-MS analysis; assay type: ADME, organism-based; conditions: in vivo
[17] = Half life in C57BL/6 mouse at 1 mg/kg, iv and 3 mg/kg, ip measured upto 24 hrs by HPLC-MS analysis; assay type: ADME, organism-based; conditions: in vivo
[18] = Half life in Sprague-Dawley rat at 3 mg/kg, po and 1 mg/kg, iv measured upto 24 hrs by HPLC-MS analysis; assay type: ADME, organism-based; conditions: in vivo
[19] = MRT(0 to t) in C57BL/6 mouse at 1 mg/kg, iv and 3 mg/kg, ip measured upto 24 hrs by HPLC-MS analysis; assay type: ADME, organism-based; conditions: in vivo
[20] = MRT(0 to t) in Sprague-Dawley rat at 3 mg/kg, po and 1 mg/kg, iv measured upto 24 hrs by HPLC-MS analysis; assay type: ADME, organism-based; conditions: in vivo
[21] = Plasma protein binding in Sprague-Dawley rat at 5 uM measured for 4 hrs by equilibrium dialysis method based LC/MS/MS analysis; assay type: ADME, cell-free; conditions: read-out: PPB (converted)
[22] = Protein binding in Sprague-Dawley rat brain at 5 uM measured for 4 hrs by equilibrium dialysis method based LC/MS/MS analysis; assay type: ADME, tissue-based; conditions: read-out: PB (converted)
[23] = target: Serine/threonine-protein kinase mTOR (Mus musculus) (UniProt Q9JLN9); test: Inhibition of mTOR in Tsc1 knockout mouse neurons assessed as reduction in phosphorylated S6 level incubated for 4 hrs by Hoechst staining based immunofluorescence analysis; assay type: cell-based; conditions: Neuron, dose 5.0 µM
[24] = Drug concentration in C57BL/6 mouse brain at 10 mg/kg, po measured after 1 hr; assay type: ADME, organism-based; conditions: read-out: Ct
[25] = Drug concentration in C57BL/6 mouse brain at 30 mg/kg, po measured after 1 hr; assay type: ADME, organism-based; conditions: read-out: Ct
[26] = Drug concentration in C57BL/6 mouse plasma at 30 mg/kg, po measured after 1 hr; assay type: ADME, organism-based
[27] = Ratio of drug concentration in brain to plasma in C57BL/6 mouse at 10 mg/kg, po measured at 1 hr; assay type: ADME, organism-based; conditions: brain and plasma, read-out: BPR
[28] = Drug concentration in C57BL/6 mouse brain at 10 mg/kg, po measured after 3 hrs; assay type: ADME, organism-based; conditions: read-out: Ct
[29] = Drug concentration in C57BL/6 mouse plasma at 10 mg/kg, po measured after 3 hrs; assay type: ADME, organism-based
[30] = Ratio of drug concentration in brain to plasma in C57BL/6 mouse at 30 mg/kg, po measured at 3 hrs; assay type: ADME, organism-based; conditions: read-out: BPR
[31] = Drug concentration in C57BL/6 mouse brain at 30 mg/kg, po measured after 24 hrs; assay type: ADME, organism-based; conditions: read-out: Ct
[32] = Drug concentration in C57BL/6 mouse plasma at 10 mg/kg, po measured after 24 hrs; assay type: ADME, organism-based
[33] = Drug concentration in C57BL/6 mouse plasma at 30 mg/kg, po measured after 24 hrs; assay type: ADME, organism-based

Sequence of Cytochrome P450 3A4 (P08684 whole entry): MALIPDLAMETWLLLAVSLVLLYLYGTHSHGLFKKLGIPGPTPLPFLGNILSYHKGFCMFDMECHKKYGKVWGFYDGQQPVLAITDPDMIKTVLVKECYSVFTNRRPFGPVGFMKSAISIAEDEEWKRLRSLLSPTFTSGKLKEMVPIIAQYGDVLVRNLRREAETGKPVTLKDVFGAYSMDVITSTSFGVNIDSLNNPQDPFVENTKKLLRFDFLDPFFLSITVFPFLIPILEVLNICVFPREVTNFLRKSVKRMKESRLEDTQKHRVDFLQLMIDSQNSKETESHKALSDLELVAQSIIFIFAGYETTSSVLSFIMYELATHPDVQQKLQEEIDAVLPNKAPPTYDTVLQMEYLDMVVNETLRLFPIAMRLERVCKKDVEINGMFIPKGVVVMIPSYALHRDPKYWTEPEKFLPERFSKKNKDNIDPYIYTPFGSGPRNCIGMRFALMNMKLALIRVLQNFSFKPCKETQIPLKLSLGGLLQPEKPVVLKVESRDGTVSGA
Sequence of Cytochrome P450 2D6 (P10635 whole entry): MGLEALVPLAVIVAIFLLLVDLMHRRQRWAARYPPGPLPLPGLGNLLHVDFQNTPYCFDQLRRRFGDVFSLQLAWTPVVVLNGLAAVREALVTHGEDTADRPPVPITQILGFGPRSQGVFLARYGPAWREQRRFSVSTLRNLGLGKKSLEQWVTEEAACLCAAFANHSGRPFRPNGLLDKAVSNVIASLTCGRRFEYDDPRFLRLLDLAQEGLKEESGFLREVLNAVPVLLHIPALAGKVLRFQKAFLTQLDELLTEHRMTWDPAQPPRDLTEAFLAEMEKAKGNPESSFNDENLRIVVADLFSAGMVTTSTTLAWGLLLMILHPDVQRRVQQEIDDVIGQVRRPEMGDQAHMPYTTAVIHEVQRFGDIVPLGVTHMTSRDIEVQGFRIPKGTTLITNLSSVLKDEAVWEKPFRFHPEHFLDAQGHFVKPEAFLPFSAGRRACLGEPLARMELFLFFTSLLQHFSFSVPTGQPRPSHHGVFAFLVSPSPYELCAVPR
Sequence of 3',5'-cyclic-AMP phosphodiesterase 4D (Q08499 whole entry): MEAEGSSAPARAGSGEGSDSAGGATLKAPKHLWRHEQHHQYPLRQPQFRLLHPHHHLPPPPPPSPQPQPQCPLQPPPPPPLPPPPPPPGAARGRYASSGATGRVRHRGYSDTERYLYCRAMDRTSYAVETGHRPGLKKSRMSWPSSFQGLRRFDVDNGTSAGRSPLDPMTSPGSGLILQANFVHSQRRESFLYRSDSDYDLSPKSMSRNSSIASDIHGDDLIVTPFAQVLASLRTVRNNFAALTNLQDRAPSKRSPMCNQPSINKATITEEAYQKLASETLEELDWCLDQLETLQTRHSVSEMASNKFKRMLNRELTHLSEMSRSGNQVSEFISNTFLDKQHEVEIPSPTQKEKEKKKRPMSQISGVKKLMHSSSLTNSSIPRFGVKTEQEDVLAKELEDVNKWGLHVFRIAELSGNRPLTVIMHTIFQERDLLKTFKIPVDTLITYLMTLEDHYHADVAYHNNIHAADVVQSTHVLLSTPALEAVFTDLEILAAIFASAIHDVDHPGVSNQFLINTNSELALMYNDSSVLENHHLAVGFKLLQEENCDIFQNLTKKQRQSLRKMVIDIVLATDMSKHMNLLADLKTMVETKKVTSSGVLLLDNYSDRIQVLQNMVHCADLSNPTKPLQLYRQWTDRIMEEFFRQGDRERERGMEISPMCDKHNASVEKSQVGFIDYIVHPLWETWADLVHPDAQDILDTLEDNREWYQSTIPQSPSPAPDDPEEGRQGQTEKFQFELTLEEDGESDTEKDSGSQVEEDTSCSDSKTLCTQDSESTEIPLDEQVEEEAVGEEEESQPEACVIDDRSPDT
Sequence of Phosphatidylinositol 4,5-bisphosphate 3-kinase catalytic subunit gamma isoform (P48736 whole entry, canonical isoform): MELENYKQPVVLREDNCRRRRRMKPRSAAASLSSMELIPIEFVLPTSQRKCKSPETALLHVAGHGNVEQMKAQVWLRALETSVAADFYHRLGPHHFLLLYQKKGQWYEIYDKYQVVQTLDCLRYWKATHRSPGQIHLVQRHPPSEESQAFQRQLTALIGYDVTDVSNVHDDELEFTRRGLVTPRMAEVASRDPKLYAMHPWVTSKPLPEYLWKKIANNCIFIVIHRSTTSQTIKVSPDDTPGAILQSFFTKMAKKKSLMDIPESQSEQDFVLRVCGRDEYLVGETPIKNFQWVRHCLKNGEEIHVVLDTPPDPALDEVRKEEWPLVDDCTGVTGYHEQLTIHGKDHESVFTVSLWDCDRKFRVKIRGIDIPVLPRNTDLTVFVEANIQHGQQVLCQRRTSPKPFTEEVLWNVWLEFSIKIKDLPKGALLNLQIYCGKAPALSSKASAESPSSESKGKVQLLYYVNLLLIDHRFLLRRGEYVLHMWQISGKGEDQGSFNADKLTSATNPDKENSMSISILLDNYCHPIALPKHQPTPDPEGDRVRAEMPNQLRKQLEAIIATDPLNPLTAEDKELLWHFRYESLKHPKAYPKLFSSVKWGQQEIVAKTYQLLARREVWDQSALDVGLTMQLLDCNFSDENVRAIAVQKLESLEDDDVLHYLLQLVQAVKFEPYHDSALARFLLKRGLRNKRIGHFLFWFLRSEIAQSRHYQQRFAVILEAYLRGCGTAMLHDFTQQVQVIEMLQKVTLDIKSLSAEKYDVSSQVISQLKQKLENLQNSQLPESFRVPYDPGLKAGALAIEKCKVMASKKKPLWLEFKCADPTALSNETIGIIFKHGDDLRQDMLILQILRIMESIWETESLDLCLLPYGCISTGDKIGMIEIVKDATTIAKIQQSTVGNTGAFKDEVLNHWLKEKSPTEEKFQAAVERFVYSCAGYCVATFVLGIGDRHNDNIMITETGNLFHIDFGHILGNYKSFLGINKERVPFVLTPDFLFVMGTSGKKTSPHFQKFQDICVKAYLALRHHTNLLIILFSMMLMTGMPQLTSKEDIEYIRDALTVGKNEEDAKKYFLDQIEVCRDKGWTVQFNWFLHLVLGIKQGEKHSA
Sequence of Phosphatidylinositol 4,5-bisphosphate 3-kinase catalytic subunit alpha isoform (P42336 whole entry, canonical isoform): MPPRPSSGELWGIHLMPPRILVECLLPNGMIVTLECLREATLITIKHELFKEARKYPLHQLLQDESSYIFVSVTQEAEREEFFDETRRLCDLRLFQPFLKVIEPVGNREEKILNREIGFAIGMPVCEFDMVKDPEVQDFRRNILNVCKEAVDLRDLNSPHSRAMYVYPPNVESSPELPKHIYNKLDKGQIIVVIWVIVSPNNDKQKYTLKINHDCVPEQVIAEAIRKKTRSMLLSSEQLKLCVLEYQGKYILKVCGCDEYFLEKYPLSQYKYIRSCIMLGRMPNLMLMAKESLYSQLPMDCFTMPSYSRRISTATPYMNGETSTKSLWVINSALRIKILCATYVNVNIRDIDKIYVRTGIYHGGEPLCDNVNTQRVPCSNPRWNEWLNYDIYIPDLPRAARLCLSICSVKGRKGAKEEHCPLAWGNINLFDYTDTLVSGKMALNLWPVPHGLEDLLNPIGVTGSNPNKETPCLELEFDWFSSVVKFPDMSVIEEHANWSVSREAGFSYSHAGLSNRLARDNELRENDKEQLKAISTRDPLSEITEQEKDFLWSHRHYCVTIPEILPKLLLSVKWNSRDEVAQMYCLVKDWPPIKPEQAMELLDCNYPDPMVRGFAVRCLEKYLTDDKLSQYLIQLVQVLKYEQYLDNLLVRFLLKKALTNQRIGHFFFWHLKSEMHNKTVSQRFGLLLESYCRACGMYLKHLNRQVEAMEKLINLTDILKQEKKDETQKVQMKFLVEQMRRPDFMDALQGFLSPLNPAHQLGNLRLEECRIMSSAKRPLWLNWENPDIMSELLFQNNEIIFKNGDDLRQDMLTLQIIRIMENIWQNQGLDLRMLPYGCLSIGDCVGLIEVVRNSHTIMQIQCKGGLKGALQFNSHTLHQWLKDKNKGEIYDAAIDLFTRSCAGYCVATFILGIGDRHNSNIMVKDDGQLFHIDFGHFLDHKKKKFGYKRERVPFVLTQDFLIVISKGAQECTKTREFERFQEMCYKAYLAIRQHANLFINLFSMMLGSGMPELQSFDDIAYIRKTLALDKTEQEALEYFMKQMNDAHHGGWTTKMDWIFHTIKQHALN

Which Activity [1] does the source give for `C[C@@H]1COCCN1c1cc(N2CCOC[C@@H]2C)nc2[nH]c(-c3cscn3)nc12` here?
Its Activity is “Non-Toxic”.

And the IC50 [2]?
The IC50 was greater than 10 µM.

And the IC50 [3]?
The IC50 was greater than 10 µM.

What about the IC50 (Cytochrome P450 3A4) of the same molecule?
Its IC50 is greater than 50 µM.

And the IC50 (Cytochrome P450 2D6)?
Its IC50 is greater than 50 µM.

And the microsomal CLint at 1 µM [4]?
Its microsomal CLint at 1 µM is 21 µL/min/mg.

And the microsomal CLint at 1 µM [5]?
The microsomal CLint at 1 µM was 3.4 µL/min/mg.

What about the Papp A→B [6] of the same molecule?
The Papp A→B was 14 ×10⁻⁶ cm/s.

What about the Papp B→A [7] of the same molecule?
Its Papp B→A is 12 ×10⁻⁶ cm/s.

What about the IC50 [8] of the same molecule?
Its IC50 is 6.3 µM.

What about the solubility [9] of the same molecule?
Its solubility is 20 µg/mL (≈ 49.9 µM).

And the AUCt ([10]; mouse, 24 h)?
Its AUCt is 10.377 µM·h.

And the AUC(0-t) at 24 h [11]?
The AUC(0-t) at 24 h was 11.7 µM·h.

And the AUC(0-t) at 24 h [12]?
The AUC(0-t) at 24 h was 2.39 µM·h.

What about the Tmax [13] of the same molecule?
Its Tmax is 1.5 h.

What about the bioavailability [14] of the same molecule?
Its bioavailability is 112%.

What about the Vd [15] of the same molecule?
The Vd was 2.8 L/kg.

What about the Vdss [16] of the same molecule?
Its Vdss is 2.3 L/kg.

And the half-life [17]?
Its half-life is 2.7 h.

What about the half-life [18] of the same molecule?
Its half-life is 3 h.

And the MRT last at 24 h [19]?
The MRT last at 24 h was 3.4 h.

And the MRT last at 24 h [20]?
Its MRT last at 24 h is 2.2 h.

And the fraction unbound at 4 h, 5 µM [21]?
Its fraction unbound at 4 h, 5 µM is 0.18.

And the fraction unbound at 4 h, 5 µM [22]?
Its fraction unbound at 4 h, 5 µM is 0.086.

What about the inhibition [23] of the same molecule?
Its inhibition is “Dose-Dependent Effect”.

What about the concentration at 1 h [24] of the same molecule?
Its concentration at 1 h is 4.27 µM.

And the concentration at 1 h [25]?
Its concentration at 1 h is 13.1 µM.

And the concentration at 1 h [26]?
Its concentration at 1 h is 10.2 µM.

What about the Kp at 1 h [27] of the same molecule?
Its Kp at 1 h is 0.97.

And the concentration at 3 h [28]?
Its concentration at 3 h is 3.25 µM.

And the concentration at 3 h [29]?
Its concentration at 3 h is 5.53 µM.

What about the Kp at 3 h [30] of the same molecule?
Its Kp at 3 h is 0.75.

What about the concentration at 24 h [31] of the same molecule?
Its concentration at 24 h is 4.65 µM.

What about the concentration at 24 h [32] of the same molecule?
The concentration at 24 h was 0.211 µM.

And the concentration at 24 h [33]?
Its concentration at 24 h is 7.02 µM.

With `C[C@@H]1COCCN1c1cc(N2CCOC[C@@H]2C)nc2[nH]c(-c3ccccn3)nc12` as the molecule, how does the Activity [1] read?
Its Activity is “Non-Toxic”.

And the IC50 [2]?
Its IC50 is greater than 10 µM.

And the IC50 [3]?
Its IC50 is greater than 10 µM.

And the IC50 (Cytochrome P450 3A4)?
The IC50 was greater than 50 µM.

What about the IC50 (Cytochrome P450 2D6) of the same molecule?
Its IC50 is greater than 50 µM.

What about the microsomal CLint at 1 µM [4] of the same molecule?
Its microsomal CLint at 1 µM is 27 µL/min/mg.

And the microsomal CLint at 1 µM [5]?
Its microsomal CLint at 1 µM is 22 µL/min/mg.

And the Papp A→B [6]?
Its Papp A→B is 41.5 ×10⁻⁶ cm/s.

What about the Papp B→A [7] of the same molecule?
The Papp B→A was 20.1 ×10⁻⁶ cm/s.

And the IC50 [8]?
Its IC50 is 17 µM.

What about the solubility [9] of the same molecule?
The solubility was 180 µg/mL (≈ 456 µM).

What about the AUC(0-t) at 24 h ([10]; C57BL/6, mouse) of the same molecule?
The AUC(0-t) at 24 h was 2.22 µM·h.

What about the AUC(0-t) at 24 h [11] of the same molecule?
Its AUC(0-t) at 24 h is 6.66 µM·h.

And the AUC(0-t) at 24 h [12]?
Its AUC(0-t) at 24 h is 8.09 µM·h.

And the Tmax [13]?
Its Tmax is 1.3 h.

And the bioavailability [14]?
The bioavailability was 98%.

And the Vd [15]?
Its Vd is 2.6 L/kg.

What about the Vdss [16] of the same molecule?
The Vdss was 0.7 L/kg.

And the half-life [17]?
The half-life was 2 h.

And the half-life [18]?
The half-life was 2.6 h.

What about the MRT last at 24 h [19] of the same molecule?
The MRT last at 24 h was 2.3 h.

And the MRT last at 24 h [20]?
Its MRT last at 24 h is 2.3 h.

And the fraction unbound at 4 h, 5 µM [21]?
Its fraction unbound at 4 h, 5 µM is 0.134.

What about the fraction unbound at 4 h, 5 µM [22] of the same molecule?
The fraction unbound at 4 h, 5 µM was 0.035.

What about the inhibition [23] of the same molecule?
The inhibition was “Dose-Dependent Effect”.

And the concentration at 1 h [24]?
The concentration at 1 h was 1.49 µM.

And the concentration at 1 h [25]?
The concentration at 1 h was 4.05 µM.

What about the concentration at 1 h [26] of the same molecule?
The concentration at 1 h was 3.93 µM.

And the Kp at 1 h [27]?
The Kp at 1 h was 0.6.

What about the concentration at 3 h [28] of the same molecule?
Its concentration at 3 h is 1.11 µM.

And the concentration at 3 h [29]?
The concentration at 3 h was 2.16 µM.

What about the Kp at 3 h [30] of the same molecule?
The Kp at 3 h was 0.65.

And the concentration at 24 h [31]?
Its concentration at 24 h is 0.79 µM.

What about the concentration at 24 h [32] of the same molecule?
Its concentration at 24 h is 0.004 µM.

What about the concentration at 24 h [33] of the same molecule?
The concentration at 24 h was 1.12 µM.

Reference: ChEMBL document CHEMBL5331134, “Identification of Brain-Penetrant ATP-Competitive mTOR Inhibitors for CNS Syndromes” (J Med Chem, 2023)
